From US5229369A, “Aminoalkylaminocarbonyl aminodiol amino acid derivatives as anti-hypertensive agents” (G. D. Searle & Co., priority 1991, dated 1993)
Where a name gives a salt, the structure may show the parent alone. Where a SMILES comes first, the peptide text is derived from it. [ ]: non-standard residue; d: D form. The star is where a group is joined. Sta = CC(C)C[C@H](N)[C@@H](O)CC(=O)O; Isovaleryl = CC(C)CC(=O)*

Columns and labels:
[1] = biological target: T1, human renin (Homo sapiens, UniProt P00797); test: human renin inhibition test in vitro (angiotensin I by radioimmunoassay); assay type: biochemical; conditions: human plasma, pH 7.4, 37° C., two hours
T1 construct: purchased National Institute for Biological Standards, London
T1 sequence (P00797 67-406): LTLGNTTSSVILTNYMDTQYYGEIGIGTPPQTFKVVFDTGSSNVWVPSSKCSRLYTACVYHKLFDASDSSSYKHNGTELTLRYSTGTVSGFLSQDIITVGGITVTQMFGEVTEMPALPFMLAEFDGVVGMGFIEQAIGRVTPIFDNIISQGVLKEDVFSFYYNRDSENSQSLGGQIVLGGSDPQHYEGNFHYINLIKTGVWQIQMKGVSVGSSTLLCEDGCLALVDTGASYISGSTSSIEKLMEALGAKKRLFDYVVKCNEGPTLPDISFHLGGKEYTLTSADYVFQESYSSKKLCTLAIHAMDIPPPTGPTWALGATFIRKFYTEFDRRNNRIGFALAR
Description: Compounds of Formula I were evaluated as inhibitors of human renin in an in vitro assay, as follows: This human renin inhibition test has been previously described in detail [Papaioannou et al., Clinical and Experimental Hypertension, A7(9), 1243-1257 (1985)]. Human renin was obtained from the National Institute for Biological Standards, London. An incubation mixture was prepared containing in a total volume of 0.25 mL 100 mM Tris-acetate buffer at pH 7.4, 25×10^-6 Goldblatt units of renin, 0.05 mL of plasma from human volunteers taking oral contraceptives, 6.0 mM sodium EDTA, 2.4 mM phenylmethyl sulfonyl fluoride, 1.5 mM 8-hydroxyquinoline, 0.4 mg/mL BSA, and 0.024 mg/mL neomycin sulfate. This mixture was incubated for two hours at 37° C. in the presence or absence of renin inhibitors. The produced angiotensin I was determined by radioimmunoassay (New England Nuclear kit). Test compounds to be assayed were solubilized in DMSO and diluted with 100 mM Tris-acetate buffer at pH 7.4 containing 0.5% bovine serum albumin (BSA) to the appropriate concentration. The final concentration of organic solvent in the reaction mixture was less than 1%. Control incubations at 37° C. were used to correct for effects of organic solvent on renin activity.

[2] = system: plasma renin; test: oral activity in vivo in sodium depleted Marmoset monkeys, plasma renin activity; set-up: species or system Common marmosets (Callithrix jacchus); conditions: 1 h, 3 mg/kg dose
Description: The oral activity of compounds of Formula I was determined in vivo in Marmoset monkeys in accordance with the following procedure: Common marmosets (Callithrix jacchus, Charles River) were placed on a modified high protein low sodium diet (Purina, St. Louis, Mo,) for 1 to 2 weeks. On the day of the test an animal was anesthetized with isoflurane and cannulated in the femoral artery and vein for blood pressure monitoring, intravenous saralasin infusion and blood sampling. After allowing the animal to recover from surgery for 2 hr, saralasin was infused at 1 microgram/min for 15 minutes to confirm that the animal's blood pressure was dependent on angiotensin II levels. The marmoset was allowed to stabilize for 30 min after the saralasin infusion. The test compound was administered orally and blood pressure was monitored for 2 hr. Blood samples were taken in K-EDTA for plasma renin activity before, 30 min, and 1 hr after compound administration.

[3] = system: hog renin; conditions: after injection of hog renin into nephrectomized rats; Gross et al, Science, 175, 656 (1971); cited from earlier work
[4] = system: aspartyl proteases such as pepsin, cathepsin D and renin; conditions: Umezawa et al, J. Antibiot. (Tokyo), 23, 259-262 (1970); cited from earlier work

Row | Compound | IC50 [1] [nM] | other results
1 | CC(C)C[C@H](O)[C@H](O)[C@H](CC1CCCCC1)NC(=O)[C@H](Cc1c[nH]cn1)NC(=O)[C@H](Cc1ccccc1)OC(=O)N(C)CCN(C)C [Example 8, O-{N-[2-(N,N-dimethylamino)ethyl]-N-methylaminocarbonyl}-3-L-phenyllactyl-L-histidineamide of (2S,3R,4S)-2-amino-1-cyclohexyl-3,4-dihydroxy-6-methylheptane] | 1 | % Reduction of Plasma Renin Activity [2]: 100%
2 | CNCCN(C)C(=O)O[C@@H](Cc1ccccc1)C(=O)N[C@@H](Cc1c[nH]cn1)C(=O)N[C@@H](CC1CCCCC1)[C@@H](O)[C@@H](O)CC(C)C [Example 10, O-{N-[2-(N-methylamino)ethyl]-N-methylaminocarbonyl}-3-L-phenyllactyl-L-histidineamide of (2S,3R,4S)-2-amino-1-cyclohexyl-3,4-dihydroxy-6-methylheptane] | 1.5 | % Reduction of Plasma Renin Activity [2]: 100%
3 | CNCCN(C)C(=O)O[C@@H](Cc1ccccc1)C(=O)N[C@@H](CC(C)C)C(=O)N[C@@H](CC1CCCCC1)[C@@H](O)[C@@H](O)CC(C)C [Example 11] | 7.7 | % Reduction of Plasma Renin Activity [2]: 100%
4 | CC(C)C[C@H](NC(=O)[C@H](Cc1ccccc1)OC(=O)N(C)CCN(C)C)C(=O)N[C@@H](CC1CCCCC1)[C@@H](O)[C@@H](O)CC(C)C [Example 15] | 5.4 | % Reduction of Plasma Renin Activity [2]: 79%
5 | CC(C)C[C@H](O)[C@H](O)[C@H](CC1CCCCC1)NC(=O)[C@H](C)CNC(=O)[C@H](Cc1ccccc1)OC(=O)N(C)CCN(C)C [Example 18] | 170 | 
6 | CC(C)C[C@H](O)[C@H](O)[C@H](CC1CCCCC1)NC(=O)[C@H](C)CNC(=O)[C@@H](CC(=O)N(C)CCN(C)C)Cc1ccccc1 [Example 19] | 48 | 
7 | CC(C)C[C@H](NC(=O)[C@H](Cc1ccccc1)OC(=O)N(CCN(C)C)C(C)C)C(=O)N[C@@H](CC1CCCCC1)[C@@H](O)[C@@H](O)CC(C)C [Example 20] | 19 | 
8 | CC(C)C[C@H](O)[C@H](O)[C@H](CC1CCCCC1)NC(=O)[C@H](C)CNC(=O)[C@H](CCc1ccccc1)CC(=O)N(C)CCCCN(C)C(=O)OC(C)(C)C [Example 21] | 1350 | 
9 | CNCCCCN(C)C(=O)C[C@@H](CCc1ccccc1)C(=O)NC[C@@H](C)C(=O)N[C@@H](CC1CCCCC1)[C@@H](O)[C@@H](O)CC(C)C [Example 22, 3-{N-[4-(N-methylamino)butyl]-N-methyl-aminocarbonyl}-2-R-phenethyl-propionyl-α-(R)-methyl-β-alanineamide of (2S,3R,4S)-2-amino-1-cyclohexyl-3,4-dihydroxy-6-methylheptane] | 67 | 
10 | CC(C)C[C@H](O)[C@H](O)[C@H](CC1CCCCC1)NC(=O)[C@H](Cc1c[nH]cn1)NC(=O)[C@H](Cc1ccccc1)OC(=O)N(C)CCN(C)C(=O)OC(C)(C)C [Example 23] | 0.45 | 
11 | CC(C)C[C@H](O)[C@H](O)[C@H](CC1CCCCC1)NC(=O)[C@H](C)CNC(=O)[C@H](CCc1ccccc1)OC(=O)N(C)CCN(C)C [Example 24] | 230 | 
12 | CC(C)C[C@H](O)[C@H](O)[C@H](CC1CCCCC1)NC(=O)[C@H](C)CNC(=O)[C@H](CCc1ccccc1)CC(=O)N(C)CCN(C)C(=O)OC(C)(C)C [Example 25] | 10 | 
13 | CC(C)C[C@H](O)[C@H](O)[C@H](CC1CCCCC1)NC(=O)[C@H](C)CNC(=O)[C@H](Cc1ccccc1)OC(=O)N(C)CCN(C)C(=O)OC(C)(C)C [Example 26] | 8.3 | 
14 | CNCCN(C)C(=O)O[C@@H](Cc1ccccc1)C(=O)NC[C@@H](C)C(=O)N[C@@H](CC1CCCCC1)[C@@H](O)[C@@H](O)CC(C)C [Example 27] | 100 | 
15 | CNCCN(C)C(=O)C[C@@H](CCc1ccccc1)C(=O)NC[C@@H](C)C(=O)N[C@@H](CC1CCCCC1)[C@@H](O)[C@@H](O)CC(C)C [Example 28, trifluoroacetate salt] | 96 | 
16 | CC(C)CC(=O)N[C@H](C(=O)N[C@H](C(=O)N[C@@H](CC(C)C)[C@@H](O)CC(=O)N[C@@H](C)C(=O)N[C@@H](CC(C)C)[C@@H](O)CC(=O)O)C(C)C)C(C)C [pepstatin] (Isovaleryl-VV[Sta]A[Sta]-OH) |  | blood pressure in vivo [3]: reduce blood pressure in vivo; inhibition of aspartyl proteases [4]: inhibitor of aspartyl proteases such as pepsin, cathepsin D and renin
